Measurements as given in US5840729A (priority 1995, dated 1998).
Where two headings read alike, the source gives them in different places.

What was measured:
[1] = target: T1, adenosine A2 receptor (Rattus norvegicus, UniProt P30543); assay: A2 receptor affinity: displacement of [3H]NECA binding in rat brain striatum membranes; conditions: Table 1
T1 construct: tissue Charles River (animals); host or cells: striatal membranes of young male rats (C-D strain)
Description: See R. R. Bruns, et al., Characterization of the A-2Adenosine Receptor Labeled by [3H]NECA in Rat Striatal Membranes, Mol. Pharmacol., 29, 331-346 (1986). Young male rats (C-D strain), obtained from Charles River, were killed by decapitation and the brain was removed. Membranes for ligand binding were isolated from rat brain striatum. The tissue was homogenized in 20 vol ice-cold 50 mM Tris-HC1 buffer (pH 7.7) using a polytron (setting for 6 to 20 seconds). The homogenate was centrifuged at 50,000×g for 10 minutes at 4° C. The pellet was again homogenized in a polytron in 20 vol of buffer, and centrifuged as before. The pellet was finally resuspended in 40 vol of 50 mM Tris-HC1 (pH 7.7) per gram of original wet weight of tissue.
Incubations were carried out at 25° C. for 60 minutes. Each tube was filtered through GF/B glass fiber filters using a vacuum. The filters were rinsed two times with 5 ml of the ice-cold buffer. […] The filters were counted by liquid scintillation spectrometry.
Specific binding of [^3 H]NECA was measured as the excess over blanks run in the presence of 100 μM 2-chloroadenosine. Total membrane-bound radioactivity was about 2.5% of that added to the test tubes. […] Specific binding to membranes was about 50% of the total bound.

[2] = target: T2, adenosine A1 receptor (Rattus norvegicus, UniProt P25099)
T2 sequence (P25099 1-326): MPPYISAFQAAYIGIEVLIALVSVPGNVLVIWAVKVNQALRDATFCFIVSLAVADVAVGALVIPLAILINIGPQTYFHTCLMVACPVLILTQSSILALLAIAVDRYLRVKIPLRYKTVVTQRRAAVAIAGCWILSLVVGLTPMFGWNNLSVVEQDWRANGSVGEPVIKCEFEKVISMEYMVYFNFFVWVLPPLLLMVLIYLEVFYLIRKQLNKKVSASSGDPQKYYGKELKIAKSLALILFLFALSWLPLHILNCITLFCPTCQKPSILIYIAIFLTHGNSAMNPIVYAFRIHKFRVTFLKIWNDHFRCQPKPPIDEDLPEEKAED

[3] = tested on: hippocampal CA1 neurons; assay: Hippocampal long-term potentiation, in vitro slice (CA1 population spike); type: cell-based, male Sprague-Dawley rats; conditions: for LTP stabilized level following tetanus / time course of LTP following tetanus: primed burst tetanus; for population spike before and after induction of LTP: hippocampal CA1 neurons
Description: Slices were prepared from male Sprague-Dawley rats. […] Briefly, the hippocampus was rapidly and gently dissected over ice. 400 μ Sections were made with a […] tissue chopper and incubated on the interface of 34° C. […] A recording electrode was placed in the CA1 region of the hippocampus and a stimulating electrode was positioned in the stratum radiatum of the CA3 region of this same slice. […] The signal form the CA1 cell body layer was amplified, filtered (1 Hz-4 KHz), and monitored on an oscilloscope. The evoked waveform was also digitized using a Computerscope A/D board (RC Electronics, Inc., Santa Barbara, Calif.) and stored for analysis using Neuroscope software (Levin and Associates, Denver, Colo.) running on an IBM-AT. In order to insure the viability of the slice, "minimal viability criteria" were established. […] Only preparations that met these three criteria were used. Twenty or more control population spikes were obtained to establish a baseline (at least 10 minutes). In most slices concentrated drug solutions were then diluted into the media for a 20 minute period to establish effects on the baseline population spike. […] One 100 μsec pulse was followed by 4 similar pulses 170, 180, 190, 200 msec later. Drug superfusion was continuous throughout the experiment. […] The compounds were dissolved in DMSO and diluted 1:400 into the perfusion media. […] Each pop spike waveform was digitized, stored, and analyzed by the Neuroscope software. Pop spike amplitude was determined for each waveform and these amplitudes were normalized to pre-tetanus levels. Results were expressed as percent change from this control level and plotted vs. time.

[4] = tested on: rats; assay: Water maze learning (scopolamine-induced impairment); type: in vivo, rat; conditions: for effect on scopolamine-induced learning impairment: water maze, summary statement; for reversal of scopolamine-induced impairment: scopolamine 1.2 mg/kg
Source text: In the water maze spatial learning model, rats are required to use distal spatial cues around a circular water tank to navigate to a hidden platform.
Rats were trained in a 120 -cm diameter water-filled tank to locate a hidden platform submerged just below the surface of the water. The location of the platform remained constant, but for each trial, the animal was required to swim from one of three different starting locations around the edge of the tank. There were no proximal cues in the tank, so the animal had to use a spatial mapping strategy using the distal cues around the room to navigate to the hidden platform. A computerized video tracking system allowed automated acquisition of the data. The animals were given 12 successive training trials during the single training day, using the methods of O. Buresova, et al., Differential Effects Of Cholinergic Blockade On Performance Of Rats In The Water Tank Navigation Task And In A Radial Water Maze, Behavioral Neuroscience, 100, 476-482 (1986). […] After the animal found or was placed on the platform, it was allowed to stay there for 30 seconds. The next trial commenced immediately following the 30 second stay on the platform. Latency to locate the platform was recorded for each trial.
Separate treatment groups of five animals each were run in each experiment. The VEH--VEH groups received vehicle (distilled water plus Tween) i.p. 40 minutes prior to the first trial and vehicle i.p. 20 min. prior to the first trial. The VEH-SCOP groups received vehicle i.p. at 40 minutes and scopolamine HBr i.p. at 20 minutes. The MDL-SCOP groups received (R)-1,3-dipropyl-8-(1-phenylpropyl)-xanthine or 3,7-dihydro-8[(R)-1-methyl-2-phenylethyl]1,3-dipropyl-1H-purine-2,6-dione i.p. at 40 minutes and scopolamine HBr i.p. at 20 minutes.
The latency scores for each animal were averaged into four blocks of three trials each (one trial from each starting location). A one-way ANOVA comparing the treatment groups was computed on the scores for each trial block. If the overall ANOVA was statistically significant, comparisons between individual treatment groups were made with Fisher's PLSD test.

[5] = tested on: animal models of learning and memory; conditions: G. Schingnitz et al. 1991; cited from earlier work
[6] = tested on: Type III phosphodiesterase; assay: Type III phosphodiesterase activity; type: biochemical
[7] = tested on: Type IV phosphodiesterase; assay: Type IV phosphodiesterase activity; type: biochemical
[8] = tested on: A1 receptor; assay: A1 receptor mediated decrease in heart rate produced by adenosine in the anesthetized guinea pig; type: in vivo
[9] = tested on: isolated guinea pig trachea; assay: Isolated guinea pig trachea, contraction produced by N6-cyclohexyl-adenosine; type: cell-based
[10] = target: T2, adenosine A1 receptor; assay: biochemical
[11] = target: T2, adenosine A1 receptor; parameters: Male Sprague-Dawley rats were sacrificed by decapitation and the membranes were isolated from whole animal brains; from tissue; host or cells: whole brain membranes of male Sprague-Dawley rats; conditions: Dudley et al., 1992; Secrest et al.; cited from earlier work
[12] = target: T2, adenosine A1 receptor; assay: A1 receptor affinity: displacement of [3H]cyclohexyladenosine binding in rat brain membranes; conditions: Table 1; ratio of A2 Ki to A1 Ki (selectivity)

T1 sequence (P30543 whole entry): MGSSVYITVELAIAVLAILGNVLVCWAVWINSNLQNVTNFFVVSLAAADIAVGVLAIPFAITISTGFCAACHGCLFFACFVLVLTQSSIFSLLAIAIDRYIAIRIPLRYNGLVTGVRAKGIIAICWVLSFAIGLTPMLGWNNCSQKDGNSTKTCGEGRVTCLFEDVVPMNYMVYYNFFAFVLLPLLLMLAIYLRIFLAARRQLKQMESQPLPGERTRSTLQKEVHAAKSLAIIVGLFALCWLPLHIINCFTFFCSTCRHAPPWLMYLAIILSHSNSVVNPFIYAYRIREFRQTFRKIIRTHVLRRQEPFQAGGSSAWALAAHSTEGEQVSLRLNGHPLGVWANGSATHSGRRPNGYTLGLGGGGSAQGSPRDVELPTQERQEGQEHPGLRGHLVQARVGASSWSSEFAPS

CCCn1c(=O)c2[nH]c(C3Cc4ccccc4C3)nc2n(CCC)c1=O (racemic) [3,7-Dihydro-8-(2-indanyl)-1,3-dipropyl-1H-purine-2,6-dione]
Ki [1]: 8.35 µM

CCCn1c(=O)c2nc(C(C)c3ccccc3)[nH]c2n(CCC)c1=O (racemic) [3,7-dihydro-8-(1-phenylethyl)-1,3-dipropyl-1H-purine-2,6-dione]
Ki [1]: 4.9 µM

CCCn1c(=O)c2nc(C(CC)Cc3ccccc3)[nH]c2n(CCC)c1=O (racemic) [3,7-dihydro-8-[1-(phenylmethyl)propyl]-1,3-dipropyl-1H-purine-2,6-dione]
Ki [1]: 1.23 µM

CCCn1c(=O)c2[nH]c(C(CC)c3ccccc3)nc2n(CCC)c1=O (racemic) [3,7-dihydro-8-[(±)-phenylpropyl]-1,3-dipropyl-1H-purine-2,6-dione]
A2/A1 [2]: 20

CCCn1c(=O)c2nc(C(CO)Cc3ccccc3)[nH]c2n(CCC)c1=O (racemic) [3,7-dihydro-8-[l-(hydroxymethyl)-2-phenylethyl]-1,3-dipropyl-1H-purine-2,6-dione]
Ki [1]: 12.8 µM

CCCn1c(=O)c2[nH]c(C3CCC(=O)C3)nc2n(CCC)c1=O (racemic) [KFM-19, reference compound]
synaptic transmission in the hippocampal slice [3]: enhanced synaptic transmission
effect on scopolamine-induced learning impairment [4]: significantly antagonized
activity in other animal models of learning and memory [5]: reported to have activity

CCCn1c(=O)c2[nH]c([C@H](C)Cc3ccccc3)nc2n(CCC)c1=O [3,7-Dihydro-8-[(R)-1-methyl-2-phenylethyl]-1,3-dipropyl-1H-purine-2,6-dione]
effect on Type III phosphodiesterase activity [6]: little effect
effect on Type IV phosphodiesterase activity [7]: little effect
reversal of A1 receptor mediated decrease in heart rate produced by adenosine [8]: completely reversed
synaptic transmission in the hippocampal slice [3]: enhanced synaptic transmission
LTP stabilized level following tetanus ([3]; 5 μM): 216%
population spike before and after induction of LTP [3]: increased the basal population spike before and after induction of LTP
time course of LTP following tetanus [3]: rose sharply and remained stable throughout the observation period
difference from VEH-VEH group (latency) ([4]; 25 mg/kg i.p. plus scopolamine […]): did not differ significantly from the VEH--VEH group
reversal of scopolamine-induced impairment of water maze learning ([4]; 25 mg/kg i.p., scopolamine […]): partially reversed
effect on scopolamine-induced learning impairment [4]: significantly antagonized
effect on contraction produced by N6-cyclohexyl-adenosine [9]: very little effect

CCCn1c(=O)c2nc([C@H](C)c3ccccc3)[nH]c2n(CCC)c1=O [3,7-Dihydro-8-[(R)-1-phenylethyl]-1,3-dipropyl-1H-purine-2,6-dione]
Ki [1]: 4.22 µM

CCCn1c(=O)c2nc([C@@H](C)c3ccccc3)[nH]c2n(CCC)c1=O [3,7-Dihydro-8-[(S)-1-phenylethyl]-1,3-dipropyl-1H-purine-2,6-dione]
Ki [1]: 12.9 µM

CCCn1c(=O)c2[nH]c([C@@H](CC)c3ccccc3)nc2n(CCC)c1=O [3,7-Dihydro-8-[(S)-1-phenylpropyl]1,3-dipropyl-1H-purine-2,6-dione]
Ki [1]: 0.848 µM
Ki [10]: 0.0607 µM
A2/A1 [2]: 14

CCCn1c(=O)c2[nH]c([C@H](CC)c3ccccc3)nc2n(CCC)c1=O [3,7-dihydro-8-[(R)-1-phenylpropyl]1,3-dipropyl-1H-purine-2,6-dione]
synaptic transmission in the hippocampal slice [3]: enhanced synaptic transmission
LTP stabilized level following tetanus ([3]; 2.5 μm): 270%
population spike before and after induction of LTP [3]: increased the basal population spike before and after induction of LTP
time course of LTP following tetanus [3]: rose sharply and remained stable throughout the observation period
difference from VEH-SCOP group (latency), block 3 ([4]; 5 mg/kg i.p. plus scopolamine 1.2 mg/kg, p<0.05): differed from the VEH-SCOP group on block 3 (p<0.05)
reversal of scopolamine-induced impairment ([4]; 5 mg/kg i.p.): reversed the scopolamine-induced impairment
difference from VEH-SCOP group (latency), blocks 2 and 3 ([4]; 25 mg/kg i.p. plus scopolamine 1.2 mg/kg): differed from the VEH-SCOP group on blocks 2 and 3
reversal of scopolamine-induced impairment ([4]; 25 mg/kg i.p.): reversed the scopolamine-induced impairment
difference from VEH-VEH group (latency) ([4]; 5 and 25 mg/kg i.p. plus scopolamine 1.2 mg/kg): did not differ significantly from the VEH--VEH group
effect on scopolamine-induced learning impairment [4]: significantly antagonized
Ki [1]: 3.51 µM
A1 antagonist potency and selectivity [11]: potent and selective A1 antagonists
A2/A1 [12]: 153
Ki [2]: 0.0232 µM

CN1[C@@H]2C[C@@H](OC(=O)[C@H](CO)c3ccccc3)C[C@H]1[C@@H]1O[C@@H]12 [scopolamine, reference compound]
VEH-SCOP group versus VEH-VEH group (latency) ([4]; scopolamine 1.2 mg/kg i.p., p<0.05): differed significantly from the VEH--VEH group (p<0.05)
impairment of acquisition of the water maze task ([4]; scopolamine, dose-dependent): dose-dependently impairs acquisition of the water maze task
